Laboratory results: patent publication US11098266B2, “Organic compounds” (Givaudan SA, priority 2017, dated 2021)

Columns and labels:
[1] = GC-odor threshold values (gas chromatograph with sniff port, panel of trained evaluators); settings: for odour threshold value geometric mean: absolute amount delivered at the sniff port, 5 panelists, identical conditions
Excerpt: As used herein, “odor threshold value” means the lowest concentration of a volatile organic compound in air which can be detected by smell. Generally speaking, it can be said that a compound with a low odor threshold value is more powerful than a compound with a high odor threshold value and thus allows the use of very low concentration in a fragrance composition to achieve an olfactory effect.
According to standard procedures known to the person skilled in the art, threshold values for volatile perfumery compounds are determined on a gas chromatograph equipped with a sniff port by a panel of trained evaluators. The lowest concentration smelled by each panelist is recorded as the individual threshold value expressed in ng (absolute amount of compound delivered at the sniff port).
Under identical conditions the odour threshold value for the individual compounds was measured.

yellow mealworm = settings: J. Agr. Food Chem. 20(1), 1972, 65-69; cited from earlier work
[2] = ratio of GC-odour threshold values

Compound	odour threshold value geometric mean [1] [ng]	odour threshold value, times lower compared to Citronellyl Acetate [1, 2] [times]	odour threshold value, times lower compared to Ethyl Citronellyl Carbonate [1, 2] [times]	juvenile hormone activity (yellow mealworm)
COC(=O)OCCC(C)CCC=C(C)C (racemic) [Example 1, 3,7-dimethyloct-6-en-1-yl methyl carbonate]	16	15	10	juvenile hormone activity
CC(C)=CCCC(C)CCOC(=O)Oc1ccccc1 (stereo not drawn) [3,7-Dimethyloct-6-en-1-yl phenyl carbonate]	–	–	–	juvenile hormone activity
CC(C)=CCCC(C)CCO (stereo not drawn) [Citronellol, 3,7-dimethyloct-6-en-1-ol]	5.2	–	–	–
CC(=O)OCCC(C)CCC=C(C)C (stereo not drawn) [Citronellyl Acetate, 3,7-dimethyloct-6-en-1-yl acetate]	241	–	–	–
CCOC(=O)OCCC(C)CCC=C(C)C (stereo not drawn) [Ethyl Citronellyl Carbonate, 3,7-dimethyloct-6-en-1-yl ethyl carbonate]	158	–	–	juvenile hormone activity
